IC50 and Kd data for twelve molecules are collected here from US20170283425A1, “COMPOUNDS FOR THE INHIBITION OF CYCLOPHILINS AND USES THEREOF” (Merck Patent GmbH, priority 2016, published 2017).

pIC50, pKd: −log10 of the molar value. Some results are limits rather than exact numbers.

In assay [1] the target is T1, CypD (Homo sapiens, UniProt P30405). As to the kind of experiment: CypD binding assay (competition fluorescence polarisation with fluorescein-labelled cyclosporin). The method, then:
The binding capacity of the compounds were measured using a competition Fluorescence-Polarisation based assay with fluorescine labelled cyclosporin. The protocol used was adapted from Hausch et al, Med Chem lett 2010, p 536.
On the technique in general: In fluorescence polarisation assays a small probe gives low polarisation when free and higher when bound to something large.

Assay [2] has as its target T1, CypD. In words: SPR binding. Conditions: SPR surface; read-out: SPR CypD (KDSS). On the technique in general: Surface plasmon resonance follows binding to a sensor surface in real time, without labels.
Text: Binding was confirmed on an SPR surface using a protocol adapted from Mori et al., J. Biomolecular Screening, 2009 p 419.
Assay [3] has as its target T1, CypD. As to the kind of experiment: CypD enzymatic assay (PPase-chymotrypsin coupled, suc-AAPF-p-NA substrate). In kind it is biochemical. Conditions: colorimetric. The method, then:
The peptidyl-proline isomerase activity (PPase) was determined by using a PPase-chymotrypsin coupled assay with suc-AAPF-p-NA as substrated and colorimeric detection adapted from Liu et al., AnalBioChem, 2006 p 100.

T1 sequence (P30405 30-207): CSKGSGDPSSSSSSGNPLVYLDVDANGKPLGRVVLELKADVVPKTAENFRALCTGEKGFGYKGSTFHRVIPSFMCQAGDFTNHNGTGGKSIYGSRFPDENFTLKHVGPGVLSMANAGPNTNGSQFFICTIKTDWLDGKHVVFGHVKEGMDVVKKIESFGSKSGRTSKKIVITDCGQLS

The term pIC50 denotes the IC50 on a negative log10 scale, so that one unit is a factor of ten. Read a high pIC50 as a low IC50. Regarding `C[C@H](c1ccccc1)N(C)C(=O)CNC(=O)NCc1ccc2c(c1)[C@H]1C[C@@H](N2)[C@H](O)CO1` [Compound 38, 2-(3-(((2R,3S,6R)-3-hydroxy-2,3,4,6-tetrahydro-1H-2,6-methanobenzo[c][1,5]oxazocin-8-yl)methyl)ureido)-N-methyl-N—((R)-1-phenylethyl)acetamide], the pIC50 at CypD [1] was 4.00 to 6.00. Besides, the pKd at CypD [2] is 4.00 to 6.00.

For the molecule “3-((1R,9R,10S)-10-Hydroxy-12-oxa-8-aza-tricyclo[7.3.1.02,7]trideca-2(7),3,5-trien-4-yl)-N-(2-oxo-2-pyrrolidin-1-yl-ethyl)-propionamide [Compound 26]”, the pIC50 on CypD [1] was 4.00 to 6.00. Also, on CypD [2], the pKd is 4.00 to 6.00.

For `CSc1ccccc1[C@H]1CCCN1C(=O)CN(C)C(=O)NCc1ccc2c(c1)[C@H]1C[C@@H](N2)[C@H](O)CO1` [Compound 16, 3-((1R,9R,10S)-10-Hydroxy-12-oxa-8-aza-tricyclo[7.3.1.02,7]trideca-2(7),3,5-trien-4-ylmethyl)-1-methyl-1-{2-[(R)-2-(2-methylsulfanyl-phenyl)-pyrrolidin-1-yl]-2-oxo-ethyl}-urea], the pIC50 at CypD [1] is 4.00 to 6.00. Moreover, the pKd at CypD [2] was 4.00 to 6.00.

Regarding `O=C(NCC(=O)N1CCCC1)NCc1ccc2c(c1)[C@H]1C[C@@H](N2)[C@H](O)CO1` [Compound 12, 1-((1R,9R,10S)-10-Hydroxy-12-oxa-8-aza-tricyclo[7.3.1.02,7]trideca-2(7),3,5-trien-4-ylmethyl)-3-(2-oxo-2-pyrrolidin-1-yl-ethyl)-urea], the pIC50 at CypD [1] and on CypD [3] was 4.00 to 6.00 in each case. Moreover, the pKd on CypD [2] is 4.00 to 6.00.

At CypD [1], `CCN1Cc2cc(CCC(=O)NCC(=O)N3CCC[C@@H]3CO)ccc2NCCC1=O` [Compound 33, 3-(5-Ethyl-4-oxo-1,2,3,4,5,6-hexahydro-benzo[b][1,5]diazocin-8-yl)-N-[2-(®-2-hydroxymethyl-pyrrolidin-1-yl)-2-oxo-ethyl]-propionamide] showed a pIC50 of 4.00 to 6.00. Further, at CypD [2], the pKd is 4.00 to 6.00.

For the molecule `CCN1Cc2cc(CNC(=O)NCC(=O)N3CCC[C@H]3CO)ccc2NCCC1=O` [Compound 22, 1-(5-Ethyl-4-oxo-1,2,3,4,5,6-hexahydro-benzo[b][1,5]diazocin-8-ylmethyl)-3-[2-((S)-2-hydroxymethyl-pyrrolidin-1-yl)-2-oxo-ethyl]-urea], the pIC50 at CypD [1] is 4.00 to 6.00. In addition, on CypD [2], the pKd is 4.00 to 6.00.

Turning to `CSc1ccccc1[C@H]1CCCN1C(=O)CNC(=O)CCc1ccc2c(c1)[C@@H]1C[C@H](N2)[C@H](O)CO1` [Compound 23, 3-((2S,3S,6S)-3-hydroxy-2,3,4,6-tetrahydro-1H-2,6-methanobenzo[c][1,5]oxazocin-8-yl)-N-(2-((R)-2-(2-(methylthio)phenyl)pyrrolidin-1-yl)-2-oxoethyl)propanamide], at CypD [1], the pIC50 was 4.00 to 6.00. Also, the pKd on CypD [2] was 4.00 to 6.00.

At CypD [1], `O=C(NCC(=O)N1CCCC1c1ccccc1C(F)(F)F)NCc1ccc2c(c1)[C@H]1C[C@@H](N2)[C@H](O)CO1` (stereo partly shown) [Compound 4] gave a pIC50 of over 6.00. In addition, the pKd on CypD [2] is over 6.00.

On CypD [1], `CCN1Cc2cc(CCC(=O)NCC(=O)N3CCCC4(CCCCC4)C3)ccc2NCCC1=O` [Compound 25, N-[2-(2-Aza-spiro[5.5]undec-2-yl)-2-oxo-ethyl]-3-(5-ethyl-4-oxo-1,2,3,4,5,6-hexahydro-benzo[b][1,5]diazocin-8-yl)-propionamide] gave a pIC50 of 4.00 to 6.00. In addition, the pKd at CypD [2] was 4.00 to 6.00.

As for `CCN1Cc2cc(CCC(=O)NCC(=O)N3CCCC3c3ccccn3)ccc2NCCC1=O` (stereo not shown) [Compound 28, 3-(5-Ethyl-4-oxo-1,2,3,4,5,6-hexahydro-benzo[b][1,5]diazocin-8-yl)-N-[2-oxo-2-(2-pyridin-2-yl-pyrrolidin-1-yl)-ethyl]-propionamide], on CypD [1], the pIC50 is 4.00 to 6.00. For the same molecule, the pKd on CypD [2] was 4.00 to 6.00.

In the case of `CSc1ccccc1[C@H]1CCCN1C(=O)CNC(=O)NC(C)c1ccc2c(c1)CCCC(=O)N2` (stereo partly drawn) [Compound 21, 1-{2-[(R)-2-(2-Methylsulfanyl-phenyl)-pyrrolidin-1-yl]-2-oxo-ethyl}-3-[1-(2-oxo-2,3,4,5-tetrahydro-1H-benzo[b]azepin-7-yl)-ethyl]-urea], at CypD [1], the pIC50 was 4.00 to 6.00. Further, the pKd at CypD [2] is 4.00 to 6.00.

In turn, `CCn1nnc(CNC(=O)NCc2ccc3c(c2)[C@H]2C[C@@H](N3)[C@H](O)CO2)n1` [Compound 39, 1-((2-ethyl-2H-tetrazol-5-yl)methyl)-3-(((2R,3S,6R)-3-hydroxy-2,3,4,6-tetrahydro-1H-2,6-methanobenzo[c][1,5]oxazocin-8-yl)methyl)urea] gave a pIC50 at CypD [1] of 4.00 to 6.00. Further, the pKd on CypD [2] was 4.00 to 6.00.
